Results published in ChEMBL document CHEMBL1201862, “PubChem BioAssay data set” (2004).
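Values below derive from 48-hour exposures of cells grown in 96-well plates, with endpoints linearly interpolated between the two concentrations bracketing the appropriate inhibition level. GI50: concentration for 50% inhibition of growth.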 Activity calls are given as the source filed them. Rule as the data show it: active = GI50 up to about 1.1 µM and inactive = higher.

Legend:
Assay in all cases: NCI anticancer screen, dose series, 48 h
UO-31 = tested on: UO-31
SK-MEL-28 = tested on: SK-MEL-28
MOLT-4 = tested on: MOLT-4
SK-MEL-5 = tested on: SK-MEL-5
CAKI-1 = tested on: CAKI-1
TK-10 = tested on: TK-10
LOX IMVI = tested on: LOX IMVI
KM12 = tested on: KM12
SK-MEL-2 = tested on: SK-MEL-2
OVCAR-5 = tested on: OVCAR-5
NCI-H23 = tested on: NCI-H23
786-0 = tested on: 786-0
ACHN = tested on: ACHN
K562 = tested on: K562
SF-539 = tested on: SF-539
PC-3 = tested on: PC-3
UACC-257 = tested on: UACC-257
HCT-15 = tested on: HCT-15
HOP-92 = tested on: HOP-92
HOP-62 = tested on: HOP-62

| SMILES | GI50 (UO-31) | GI50 (SK-MEL-28) | GI50 (MOLT-4) | GI50 (SK-MEL-5) | GI50 (CAKI-1) | GI50 (TK-10) | GI50 (LOX IMVI) | GI50 (KM12) | GI50 (SK-MEL-2) | GI50 (OVCAR-5) | GI50 (NCI-H23) | GI50 (786-0) | GI50 (ACHN) | GI50 (K562) | GI50 (SF-539) | GI50 (PC-3) | GI50 (UACC-257) | GI50 (HCT-15) | GI50 (HOP-92) | GI50 (HOP-62) |
| --- | --- | --- | --- | --- | --- | --- | --- | --- | --- | --- | --- | --- | --- | --- | --- | --- | --- | --- | --- | --- |
| O=c1[nH]nc(Cc2ccccc2)n1/N=C/c1c[nH]c2ccccc12 | > 100 µM (inactive) | > 100 µM (inactive) | > 100 µM (inactive) | > 100 µM (inactive) | 16.7 µM (inactive) | 35.3 µM (inactive) | > 100 µM (inactive) | > 100 µM (inactive) | > 100 µM (inactive) | > 100 µM (inactive) | > 100 µM (inactive) | 43 µM (inactive) | > 100 µM (inactive) | > 100 µM (inactive) | > 100 µM (inactive) | 92 µM (inactive) | 96.2 µM (inactive) | > 100 µM | > 100 µM (inactive) | 60.7 µM (inactive) |
| Cn1c2c(c3ccccc31)CCN1C(=O)CCC21 (stereo not given) | > 10 µM (inactive) | > 10 µM (inactive) | > 10 µM (inactive) | > 10 µM (inactive) | > 10 µM (inactive) | > 10 µM (inactive) | > 10 µM (inactive) | > 10 µM (inactive) | > 10 µM (inactive) | > 10 µM (inactive) | > 10 µM (inactive) | > 10 µM (inactive) | > 10 µM (inactive) | > 10 µM (inactive) | > 10 µM (inactive) | > 10 µM (inactive) | > 10 µM (inactive) | > 10 µM | > 10 µM (inactive) | > 10 µM (inactive) |
| C[C@@H](O)C(=O)N1[C@@H]2CC3CC[C@]2(CS1(=O)=O)C3(C)C | > 100 µM (inactive) | 76.2 µM (inactive) | 31.1 µM (inactive) | 49.2 µM (inactive) | > 100 µM (inactive) | > 100 µM (inactive) | > 100 µM (inactive) | 82.2 µM (inactive) | > 100 µM (inactive) | > 100 µM (inactive) | 62.2 µM (inactive) | 52.8 µM (inactive) | 64.1 µM (inactive) | 68.1 µM (inactive) | 48.9 µM (inactive) | 96.8 µM (inactive) | > 100 µM (inactive) | 56.6 µM | 66.1 µM (inactive) | > 100 µM (inactive) |
| CN(C)CCNC(=O)c1ccc(NCCCN(C)CCCNc2ccc3c(=O)n(CCN(C)C)c(=O)n4c5ccccc5c(=O)c2c34)c2c(O)c3ccccc3nc12 | < 0.01 µM (active) | 0.234 µM (active) | < 0.01 µM (active) | 0.0617 µM (active) | 0.0258 µM (active) | 0.0471 µM (active) | < 0.01 µM (active) | < 0.01 µM (active) | 0.0315 µM (active) | 0.0192 µM (active) | < 0.0146 µM (active) | < 0.01 µM (active) | < 0.01 µM (active) | 0.0324 µM (active) | 0.138 µM (active) | < 0.01 µM (active) | 0.162 µM (active) | 0.0155 µM | 0.114 µM (active) | < 0.01 µM (active) |
| O=C1CSC(/C=C/c2ccccc2)N1c1ccc(-n2c(-c3ccccc3)nc3ccccc3c2=O)cc1 (stereo not given) | 16.8 µM (inactive) | > 100 µM (inactive) | 30.9 µM (inactive) | 68.9 µM (inactive) | > 100 µM (inactive) | > 100 µM (inactive) | 95.3 µM (inactive) | 33.1 µM (inactive) | > 100 µM (inactive) | > 100 µM (inactive) | > 100 µM (inactive) | > 100 µM (inactive) | > 10 µM (inactive) | > 100 µM (inactive) | 71.4 µM (inactive) | 61.2 µM (inactive) | > 100 µM (inactive) | 86.9 µM | > 100 µM (inactive) | 42.7 µM (inactive) |
| O=C(O)c1nc(-c2ccccn2)c(-c2ccccn2)nc1C(=O)O | 1.64 µM (inactive) | 1.2 µM (inactive) | 2.3 µM (inactive) | 1.28 µM (inactive) | 2.92 µM (inactive) | 3.48 µM (inactive) | 2.07 µM (inactive) | 2.75 µM (inactive) | 4.95 µM (inactive) | 3.01 µM (inactive) | 5.3 µM (inactive) | 2.61 µM (inactive) | 0.678 µM (active) | 3.66 µM (inactive) | 3.38 µM (inactive) | 4.47 µM (inactive) | 4.35 µM (inactive) | 0.384 µM | 9.51 µM (inactive) | 2.15 µM (inactive) |
| COc1ccc(Oc2cnn(C(Br)(Br)C(C)=O)c(=O)c2Br)cc1 | 7.66 µM (inactive) | 16 µM (inactive) | 0.861 µM (active) | 16 µM (inactive) | 10.8 µM (inactive) | 13.5 µM (inactive) | 11 µM (inactive) | 14.8 µM (inactive) | 16.3 µM (inactive) | 17.7 µM (inactive) | 17.9 µM (inactive) | 13.9 µM (inactive) | 13.6 µM (inactive) | 3.85 µM (inactive) | 12.4 µM (inactive) | 14.1 µM (inactive) | 15.1 µM (inactive) | 16 µM | 14.7 µM (inactive) | 16.7 µM (inactive) |
| C=C1C2CC3CCC2C(OC(=O)c2ccccc2C(=O)O)C13 (stereo not given) | > 100 µM (inactive) | > 100 µM (inactive) | > 100 µM (inactive) | > 100 µM (inactive) | > 100 µM (inactive) | > 100 µM (inactive) | > 100 µM (inactive) | > 100 µM (inactive) | > 100 µM (inactive) | > 100 µM (inactive) | > 100 µM (inactive) | > 100 µM (inactive) | > 100 µM (inactive) | > 100 µM (inactive) | > 100 µM (inactive) | > 100 µM (inactive) | > 100 µM (inactive) | > 100 µM | > 100 µM (inactive) | > 100 µM (inactive) |
| O=C(Nc1ccccc1)OCCN=c1c2ccccc2ccc2ccccc12 | 17 µM (inactive) | 23.7 µM (inactive) | 15.7 µM (inactive) | 14.1 µM (inactive) | 26.4 µM (inactive) | 31.4 µM (inactive) | 20.3 µM (inactive) | 19.1 µM (inactive) | 11.3 µM (inactive) | 41.5 µM (inactive) | 35.1 µM (inactive) | 32.7 µM (inactive) | 20.9 µM (inactive) | 14.7 µM (inactive) | 19.8 µM (inactive) | 20.9 µM (inactive) | 15.8 µM (inactive) | 26.1 µM | 18.4 µM (inactive) | 28.2 µM (inactive) |
| Cn1/c(=N\N=C(\CNCCO)[C@@H](O)[C@@H]2OC(c3ccccc3)OC[C@H]2O)sc2ccccc21 (stereo not given in full) | 15.4 µM (inactive) | 17.3 µM (inactive) | 14.9 µM (inactive) | 14.9 µM (inactive) | 15.6 µM (inactive) | 18.5 µM (inactive) | 15.1 µM (inactive) | 17.1 µM (inactive) | 17.7 µM (inactive) | 18.2 µM (inactive) | 20 µM (inactive) | 18 µM (inactive) | 19.9 µM (inactive) | 14.8 µM (inactive) | 17.5 µM (inactive) | 16.6 µM (inactive) | 19.6 µM (inactive) | 25.5 µM | 11 µM (inactive) | 17.8 µM (inactive) |
| CC(C)OC(=O)c1ccc(CCc2cc(O)c(Br)cc2O)cc1 | 5.52 µM (inactive) | 13.9 µM (inactive) | 7.94 µM (inactive) | 15.1 µM (inactive) | 11.4 µM (inactive) | 16.9 µM (inactive) | 8.04 µM (inactive) | 6.56 µM (inactive) | 13.1 µM (inactive) | 17.5 µM (inactive) | 8.85 µM (inactive) | 12 µM (inactive) | 18 µM (inactive) | 8.65 µM (inactive) | 7.36 µM (inactive) | 8.32 µM (inactive) | 13.6 µM (inactive) | 6.18 µM | 20.9 µM (inactive) | 12.3 µM (inactive) |
| Cn1c(=O)c2nc(CCCCc3nc4ccccc4[nH]3)[nH]c2n(C)c1=O | 35.4 µM (inactive) | > 100 µM (inactive) | > 100 µM (inactive) | > 100 µM (inactive) | 50.8 µM (inactive) | > 100 µM (inactive) | > 100 µM (inactive) | > 100 µM (inactive) | > 100 µM (inactive) | > 100 µM (inactive) | > 100 µM (inactive) | > 100 µM (inactive) | > 100 µM (inactive) | > 100 µM (inactive) | 17 µM (inactive) | > 100 µM (inactive) | > 100 µM (inactive) | > 100 µM | 21.4 µM (inactive) | > 100 µM (inactive) |
| CN(C)CCn1c(=O)c2ccc(NCCCN(C)CCCNc3ccc4c(=O)n(CCN(C)C)c(=O)n5c6ccc(O)cc6c(=O)c3c45)c3c(=O)c4cc(O)ccc4n(c1=O)c23 | 0.0107 µM (active) | 0.0841 µM (active) | < 0.01 µM (active) | < 0.01 µM (active) | < 0.01 µM (active) | < 0.0126 µM (active) | < 0.01 µM (active) | < 0.01 µM (active) | 0.0335 µM (active) | 0.0442 µM (active) | < 0.01 µM (active) | < 0.01 µM (active) | < 0.01 µM (active) | < 0.01 µM (active) | < 0.01 µM (active) | < 0.01 µM (active) | 0.181 µM (active) | < 0.0173 µM | < 0.0201 µM (active) | < 0.032 µM (active) |
| CN(C)C1(N(C)C)Oc2c(c(=O)n(C)c(=O)n2C)C(c2ccccc2Br)C1(F)F (stereo not given) | > 100 µM (inactive) | > 100 µM (inactive) | > 100 µM (inactive) | > 100 µM (inactive) | > 100 µM (inactive) | > 100 µM (inactive) | > 100 µM (inactive) | > 100 µM (inactive) | > 100 µM (inactive) | > 100 µM (inactive) | > 100 µM (inactive) | > 100 µM (inactive) | > 100 µM (inactive) | > 100 µM (inactive) | > 100 µM (inactive) | > 100 µM (inactive) | > 100 µM (inactive) | > 100 µM | > 100 µM (inactive) | > 100 µM (inactive) |
